Results from ChEMBL document CHEMBL4507267 (2021).

What was measured:
[1] = target: Tyrosine-protein kinase ZAP-70 (Homo sapiens) (UniProt P43403); settings: Compound concentration 1000.0 nM
[2] = target: Serine/threonine-protein kinase tousled-like 1 (Homo sapiens) (UniProt Q9UKI8); settings: Compound concentration 1000.0 nM
[3] = test system: Receptor-type tyrosine-protein kinase FLT3 (Homo sapiens), P36888 [N841I]; settings: Compound concentration 1000.0 nM
[4] = target: Tyrosine-protein kinase Tec (Homo sapiens) (UniProt P42680); settings: Compound concentration 1000.0 nM
[5] = target: Serine/threonine-protein kinase Sgk2 (Homo sapiens) (UniProt Q9HBY8); settings: Compound concentration 1000.0 nM
[6] = target: Phosphatidylinositol 4-phosphate 3-kinase C2 domain-containing subunit beta (Homo sapiens) (UniProt O00750); settings: Compound concentration 1000.0 nM
[7] = target: Tyrosine-protein kinase Fes/Fps (Homo sapiens) (UniProt P07332); settings: Compound concentration 1000.0 nM
[8] = test system: Tyrosine-protein kinase ABL1 (Homo sapiens), P00519 [Q252H]; settings: Compound concentration 1000.0 nM
[9] = target: Cyclin-dependent kinase 5 (Homo sapiens) (UniProt Q00535); settings: Compound concentration 1000.0 nM
[10] = test system: Phosphatidylinositol 4,5-bisphosphate 3-kinase catalytic subunit alpha isoform (Homo sapiens), P42336 [C420R]; settings: Compound concentration 1000.0 nM
[11] = target: Testis-specific serine/threonine-protein kinase 1 (Homo sapiens) (UniProt Q9BXA7); settings: Compound concentration 1000.0 nM
[12] = target: Calcium/calmodulin-dependent protein kinase type 1G (Homo sapiens) (UniProt Q96NX5); settings: Compound concentration 1000.0 nM
[13] = target: Serine/threonine-protein kinase LATS2 (Homo sapiens) (UniProt Q9NRM7); settings: Compound concentration 1000.0 nM
[14] = target: Mitogen-activated protein kinase kinase kinase kinase 2 (Homo sapiens) (UniProt Q12851); settings: Compound concentration 1000.0 nM
[15] = target: Cyclin-dependent kinase 15 (Homo sapiens) (UniProt Q96Q40); settings: Compound concentration 1000.0 nM
[16] = test system: Proto-oncogene tyrosine-protein kinase receptor Ret (Homo sapiens), P07949 [M918T]; settings: Compound concentration 1000.0 nM
[17] = target: LIM domain kinase 2 (Homo sapiens) (UniProt P53671); settings: Compound concentration 1000.0 nM
[18] = target: Leukocyte tyrosine kinase receptor (Homo sapiens) (UniProt P29376); settings: Compound concentration 1000.0 nM
[19] = target: Phosphatidylinositol 4-kinase beta (Homo sapiens) (UniProt Q9UBF8); settings: Compound concentration 1000.0 nM
[20] = target: 5-hydroxytryptamine receptor 1B (Homo sapiens) (UniProt P28222); settings: Compound concentration 10.0 uM
[21] = test system: Tyrosine-protein kinase ABL1 (Homo sapiens), P00519 [F317L]; settings: Compound concentration 1000.0 nM
[22] = target: Bone morphogenetic protein receptor type-1A (Homo sapiens) (UniProt P36894); settings: Compound concentration 1000.0 nM
[23] = target: Myosin light chain kinase, smooth muscle (Homo sapiens) (UniProt Q15746); settings: Compound concentration 1000.0 nM
[24] = target: Insulin receptor-related protein (Homo sapiens) (UniProt P14616); settings: Compound concentration 1000.0 nM
[25] = test system: Epidermal growth factor receptor (Homo sapiens), P00533 [UNDEFINED MUTATION]; settings: Compound concentration 1000.0 nM
[26] = target: Serine/threonine-protein kinase TAO1 (Homo sapiens) (UniProt Q7L7X3); settings: Compound concentration 1000.0 nM
[27] = target: Serine/threonine-protein kinase 10 (Homo sapiens) (UniProt O94804); settings: Compound concentration 1000.0 nM
[28] = target: Serine/threonine-protein kinase DCLK1 (Homo sapiens) (UniProt O15075); settings: Compound concentration 1000.0 nM
[29] = target: Serine/threonine-protein kinase Nek9 (Homo sapiens) (UniProt Q8TD19); settings: Compound concentration 1000.0 nM
[30] = target: Mitogen-activated protein kinase kinase kinase 20 (Homo sapiens) (UniProt Q9NYL2); settings: Compound concentration 1000.0 nM
[31] = target: Homeodomain-interacting protein kinase 2 (Homo sapiens) (UniProt Q9H2X6); settings: Compound concentration 1000.0 nM
[32] = target: Proto-oncogene tyrosine-protein kinase ROS (Homo sapiens) (UniProt P08922); settings: Compound concentration 1000.0 nM
[33] = target: 5-hydroxytryptamine receptor 5A (Homo sapiens) (UniProt P47898); settings: Compound concentration 10.0 uM
[34] = target: Activin receptor type-1-like (Homo sapiens) (UniProt P37023); settings: Compound concentration 1000.0 nM
[35] = target: cGMP-dependent protein kinase 2 (Homo sapiens) (UniProt Q13237); settings: Compound concentration 1000.0 nM
[36] = target: Phosphorylase b kinase gamma catalytic chain, skeletal muscle/heart isoform (Homo sapiens) (UniProt Q16816); settings: Compound concentration 1000.0 nM
[37] = target: Vascular endothelial growth factor receptor 3 (Homo sapiens) (UniProt P35916); settings: Compound concentration 1000.0 nM
[38] = target: Macrophage-stimulating protein receptor (Homo sapiens) (UniProt Q04912); settings: Compound concentration 1000.0 nM
[39] = target: Myosin light chain kinase family member 4 (Homo sapiens) (UniProt Q86YV6); settings: Compound concentration 1000.0 nM
[40] = target: Beta-1 adrenergic receptor (Homo sapiens) (UniProt P08588); settings: Compound concentration 10.0 uM
[41] = target: Mitogen-activated protein kinase kinase kinase kinase 1 (Homo sapiens) (UniProt Q92918); settings: Compound concentration 1000.0 nM
[42] = target: Cyclin-dependent kinase-like 5 (Homo sapiens) (UniProt O76039); settings: Compound concentration 1000.0 nM
[43] = target: Tyrosine-protein kinase JAK1 (Homo sapiens) (UniProt P23458); settings: Compound concentration 1000.0 nM
[44] = target: Ribosomal protein S6 kinase alpha-1 (Homo sapiens) (UniProt Q15418); settings: Compound concentration 1000.0 nM
[45] = target: Tyrosine-protein kinase Lyn (Homo sapiens) (UniProt P07948); settings: Compound concentration 1000.0 nM

Sequence of Tyrosine-protein kinase ZAP-70 (Homo sapiens) (P43403 whole entry): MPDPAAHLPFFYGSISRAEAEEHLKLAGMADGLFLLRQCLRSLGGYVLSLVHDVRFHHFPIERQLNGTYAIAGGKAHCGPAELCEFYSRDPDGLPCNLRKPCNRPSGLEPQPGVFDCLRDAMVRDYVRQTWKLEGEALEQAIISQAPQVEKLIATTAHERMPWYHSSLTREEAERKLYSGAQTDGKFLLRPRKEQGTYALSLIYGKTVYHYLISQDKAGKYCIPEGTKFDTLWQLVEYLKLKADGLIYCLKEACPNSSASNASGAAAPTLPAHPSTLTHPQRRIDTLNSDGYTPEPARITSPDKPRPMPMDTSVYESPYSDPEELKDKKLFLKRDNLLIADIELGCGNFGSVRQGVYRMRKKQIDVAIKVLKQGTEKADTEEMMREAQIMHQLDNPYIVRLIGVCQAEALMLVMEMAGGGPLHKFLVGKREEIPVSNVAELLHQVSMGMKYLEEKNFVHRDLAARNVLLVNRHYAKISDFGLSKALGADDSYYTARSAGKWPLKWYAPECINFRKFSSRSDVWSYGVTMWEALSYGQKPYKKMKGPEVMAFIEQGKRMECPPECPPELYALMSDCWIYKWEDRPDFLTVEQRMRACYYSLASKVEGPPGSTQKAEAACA
Sequence of Serine/threonine-protein kinase Sgk2 (Homo sapiens) (Q9HBY8 whole entry, the tested form may be a part): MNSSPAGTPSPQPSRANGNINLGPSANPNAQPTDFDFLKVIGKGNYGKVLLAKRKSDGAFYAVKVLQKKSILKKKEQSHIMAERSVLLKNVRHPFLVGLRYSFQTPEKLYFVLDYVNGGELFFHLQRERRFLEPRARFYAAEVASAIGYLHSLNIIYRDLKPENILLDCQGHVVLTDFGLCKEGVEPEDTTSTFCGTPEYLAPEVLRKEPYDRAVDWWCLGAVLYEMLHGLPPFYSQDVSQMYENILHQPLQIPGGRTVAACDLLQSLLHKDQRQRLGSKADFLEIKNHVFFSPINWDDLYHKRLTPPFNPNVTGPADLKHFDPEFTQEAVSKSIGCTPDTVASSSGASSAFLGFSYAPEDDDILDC
Sequence of Serine/threonine-protein kinase 10 (Homo sapiens) (O94804 whole entry, looked up): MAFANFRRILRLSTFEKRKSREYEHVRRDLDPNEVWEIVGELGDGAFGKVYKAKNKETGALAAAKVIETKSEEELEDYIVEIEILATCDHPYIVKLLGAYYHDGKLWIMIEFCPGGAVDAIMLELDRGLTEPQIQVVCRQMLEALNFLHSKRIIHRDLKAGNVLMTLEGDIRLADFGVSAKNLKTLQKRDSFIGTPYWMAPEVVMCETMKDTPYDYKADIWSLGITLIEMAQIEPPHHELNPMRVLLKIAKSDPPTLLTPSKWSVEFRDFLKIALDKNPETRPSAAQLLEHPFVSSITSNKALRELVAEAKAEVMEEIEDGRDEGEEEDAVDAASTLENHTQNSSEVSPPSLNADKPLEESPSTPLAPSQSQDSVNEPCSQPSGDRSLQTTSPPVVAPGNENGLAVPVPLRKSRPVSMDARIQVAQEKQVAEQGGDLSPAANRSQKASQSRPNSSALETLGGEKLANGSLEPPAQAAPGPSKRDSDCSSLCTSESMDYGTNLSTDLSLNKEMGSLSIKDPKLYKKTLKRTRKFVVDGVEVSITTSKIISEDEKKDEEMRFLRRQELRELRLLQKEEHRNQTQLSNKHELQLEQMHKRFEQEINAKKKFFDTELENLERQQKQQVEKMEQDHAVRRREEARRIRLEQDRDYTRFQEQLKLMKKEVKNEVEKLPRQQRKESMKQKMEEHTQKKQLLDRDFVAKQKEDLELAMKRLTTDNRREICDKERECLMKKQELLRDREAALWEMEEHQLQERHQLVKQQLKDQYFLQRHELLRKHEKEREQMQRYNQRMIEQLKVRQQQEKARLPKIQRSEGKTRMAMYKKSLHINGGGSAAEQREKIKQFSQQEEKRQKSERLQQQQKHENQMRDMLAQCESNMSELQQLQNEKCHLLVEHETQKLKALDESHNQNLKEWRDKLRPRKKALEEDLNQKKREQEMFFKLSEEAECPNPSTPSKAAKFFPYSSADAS
Sequence of Cyclin-dependent kinase-like 5 (Homo sapiens) (O76039 whole entry): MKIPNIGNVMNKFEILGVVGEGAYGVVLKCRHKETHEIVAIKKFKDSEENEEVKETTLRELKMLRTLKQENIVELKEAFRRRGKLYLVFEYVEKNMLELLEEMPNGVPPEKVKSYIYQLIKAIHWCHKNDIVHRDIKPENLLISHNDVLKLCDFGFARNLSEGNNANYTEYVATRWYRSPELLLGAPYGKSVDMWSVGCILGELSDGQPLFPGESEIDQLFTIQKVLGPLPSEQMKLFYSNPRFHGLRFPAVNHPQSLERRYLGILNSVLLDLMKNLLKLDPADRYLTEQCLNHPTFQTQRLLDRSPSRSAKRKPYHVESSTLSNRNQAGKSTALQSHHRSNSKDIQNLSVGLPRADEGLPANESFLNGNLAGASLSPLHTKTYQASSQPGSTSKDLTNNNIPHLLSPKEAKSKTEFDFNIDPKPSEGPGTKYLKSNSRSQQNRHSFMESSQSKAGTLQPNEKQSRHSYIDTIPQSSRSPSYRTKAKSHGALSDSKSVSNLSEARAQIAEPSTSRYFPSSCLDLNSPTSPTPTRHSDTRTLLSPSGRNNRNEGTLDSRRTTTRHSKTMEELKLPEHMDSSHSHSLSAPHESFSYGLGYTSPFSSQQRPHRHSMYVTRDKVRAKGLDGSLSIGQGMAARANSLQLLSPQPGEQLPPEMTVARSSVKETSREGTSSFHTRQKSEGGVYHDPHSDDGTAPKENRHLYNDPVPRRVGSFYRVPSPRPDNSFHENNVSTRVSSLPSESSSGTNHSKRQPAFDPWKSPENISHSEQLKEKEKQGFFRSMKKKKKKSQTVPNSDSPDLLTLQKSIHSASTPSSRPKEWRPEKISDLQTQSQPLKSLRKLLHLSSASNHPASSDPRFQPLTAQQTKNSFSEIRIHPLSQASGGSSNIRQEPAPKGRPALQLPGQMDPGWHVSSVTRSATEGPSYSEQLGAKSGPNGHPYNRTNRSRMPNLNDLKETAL
Sequence of Serine/threonine-protein kinase DCLK1 (Homo sapiens) (O15075 whole entry): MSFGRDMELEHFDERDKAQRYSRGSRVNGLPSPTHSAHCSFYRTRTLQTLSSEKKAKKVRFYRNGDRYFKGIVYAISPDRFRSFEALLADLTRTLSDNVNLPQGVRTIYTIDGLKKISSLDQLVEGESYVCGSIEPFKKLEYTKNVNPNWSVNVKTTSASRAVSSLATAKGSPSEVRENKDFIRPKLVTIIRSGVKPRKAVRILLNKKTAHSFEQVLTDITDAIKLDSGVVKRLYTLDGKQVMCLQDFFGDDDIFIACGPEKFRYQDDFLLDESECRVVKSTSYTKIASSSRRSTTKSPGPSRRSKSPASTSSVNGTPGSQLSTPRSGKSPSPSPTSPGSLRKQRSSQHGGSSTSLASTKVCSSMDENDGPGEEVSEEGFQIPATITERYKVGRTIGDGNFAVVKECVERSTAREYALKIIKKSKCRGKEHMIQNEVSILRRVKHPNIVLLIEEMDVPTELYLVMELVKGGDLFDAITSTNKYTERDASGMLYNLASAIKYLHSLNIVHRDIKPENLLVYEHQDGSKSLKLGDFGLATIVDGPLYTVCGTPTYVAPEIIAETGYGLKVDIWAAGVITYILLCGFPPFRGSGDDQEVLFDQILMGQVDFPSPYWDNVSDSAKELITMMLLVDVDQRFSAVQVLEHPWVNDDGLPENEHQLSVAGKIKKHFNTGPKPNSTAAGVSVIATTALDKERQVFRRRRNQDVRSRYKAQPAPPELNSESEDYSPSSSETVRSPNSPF
Sequence of Phosphatidylinositol 4-kinase beta (Homo sapiens) (Q9UBF8 2-816 limits assumed): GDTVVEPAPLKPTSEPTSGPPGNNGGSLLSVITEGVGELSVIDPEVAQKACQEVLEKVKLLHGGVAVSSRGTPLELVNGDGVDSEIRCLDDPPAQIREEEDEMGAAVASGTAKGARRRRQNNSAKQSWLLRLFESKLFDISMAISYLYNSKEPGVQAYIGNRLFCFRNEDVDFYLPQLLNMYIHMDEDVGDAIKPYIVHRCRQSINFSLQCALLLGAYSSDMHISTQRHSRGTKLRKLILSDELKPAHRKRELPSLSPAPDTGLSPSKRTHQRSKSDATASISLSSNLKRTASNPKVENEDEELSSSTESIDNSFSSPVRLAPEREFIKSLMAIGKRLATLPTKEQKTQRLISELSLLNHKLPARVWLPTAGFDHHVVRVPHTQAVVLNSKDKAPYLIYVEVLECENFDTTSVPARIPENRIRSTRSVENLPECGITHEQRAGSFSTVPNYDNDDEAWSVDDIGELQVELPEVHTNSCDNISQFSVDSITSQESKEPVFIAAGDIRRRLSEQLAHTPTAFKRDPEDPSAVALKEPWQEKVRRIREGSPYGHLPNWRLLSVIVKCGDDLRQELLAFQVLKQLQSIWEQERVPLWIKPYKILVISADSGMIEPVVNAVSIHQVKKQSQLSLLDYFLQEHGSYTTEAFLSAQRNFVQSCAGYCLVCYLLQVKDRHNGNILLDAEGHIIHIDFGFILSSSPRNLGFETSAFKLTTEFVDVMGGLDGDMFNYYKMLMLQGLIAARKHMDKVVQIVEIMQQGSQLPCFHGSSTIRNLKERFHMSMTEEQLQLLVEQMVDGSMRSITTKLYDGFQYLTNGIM
Sequence of 5-hydroxytryptamine receptor 1B (Homo sapiens) (P28222 whole entry): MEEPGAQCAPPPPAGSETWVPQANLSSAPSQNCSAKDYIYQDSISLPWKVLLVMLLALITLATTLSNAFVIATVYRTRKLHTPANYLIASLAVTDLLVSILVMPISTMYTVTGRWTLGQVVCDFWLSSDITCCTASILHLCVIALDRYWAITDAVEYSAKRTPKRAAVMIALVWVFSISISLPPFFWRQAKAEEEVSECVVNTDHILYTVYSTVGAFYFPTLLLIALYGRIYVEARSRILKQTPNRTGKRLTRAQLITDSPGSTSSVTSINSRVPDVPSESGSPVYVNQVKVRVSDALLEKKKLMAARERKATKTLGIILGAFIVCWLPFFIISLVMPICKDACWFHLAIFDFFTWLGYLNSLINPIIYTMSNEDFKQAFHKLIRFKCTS

Cc1c(NC(=O)c2cc(C(N)=O)nc3cc(F)ccc23)c(C(F)(F)F)nn1Cc1ccc(C(C)(C)C)cc1 [BAY-588]
inactive: residual activity [1] 100% | residual activity [2] 100% | residual activity [3] 52% | residual activity [4] 94% | residual activity [5] 100% | residual activity [6] 86% | residual activity [7] 100% | residual activity [8] 100% | residual activity [9] 76% | residual activity [10] 100% | residual activity [11] 100% | residual activity [12] 100% | residual activity [13] 84% | residual activity [14] 100% | residual activity [15] 100% | residual activity [16] 96% | residual activity [17] 84% | residual activity [18] 83% | residual activity [19] 72% | inhibition [20] -7.67% | residual activity [21] 98% | residual activity [22] 100% | residual activity [23] 97% | residual activity [24] 96% | residual activity [25] 77% | residual activity [26] 100% | residual activity [27] 88% | residual activity [28] 91% | residual activity [29] 100% | residual activity [30] 100% | residual activity [31] 100% | residual activity [32] 100% | inhibition [33] 8.32% | residual activity [34] 94% | residual activity [35] 100% | residual activity [36] 100% | residual activity [37] 91% | residual activity [38] 80% | residual activity [39] 100% | inhibition [40] 21.2% | residual activity [41] 100% | residual activity [42] 100% | residual activity [43] 100% | residual activity [44] 100% | residual activity [45] 99%

Cc1c(NC(=O)c2cc(C(N)=O)nc3cc(F)ccc23)c(C(F)(F)F)nn1Cc1ccc(C#N)cc1 [BAY-876]
inactive: residual activity [1] 84% | residual activity [2] 79% | residual activity [3] 53% | residual activity [4] 85% | residual activity [5] 80% | residual activity [6] 81% | residual activity [7] 83% | residual activity [8] 81% | residual activity [9] 100% | residual activity [10] 70% | residual activity [11] 95% | residual activity [12] 75% | residual activity [13] 72% | residual activity [14] 88% | residual activity [15] 100% | residual activity [16] 96% | residual activity [17] 95% | residual activity [18] 82% | residual activity [19] 77% | inhibition [20] 2.6% | residual activity [21] 81% | residual activity [22] 84% | residual activity [23] 65% | residual activity [24] 92% | residual activity [25] 83% | residual activity [26] 93% | residual activity [27] 79% | residual activity [28] 85% | residual activity [29] 95% | residual activity [30] 100% | residual activity [31] 83% | residual activity [32] 99% | inhibition [33] -2.35% | residual activity [34] 100% | residual activity [35] 74% | residual activity [36] 100% | residual activity [37] 100% | residual activity [38] 76% | residual activity [39] 90% | inhibition [40] 28.5% | residual activity [41] 100% | residual activity [42] 77% | residual activity [43] 86% | residual activity [44] 78% | residual activity [45] 100%
